Experimental data reported in the supplement of paper PMC5908809.

Tests used:
SNK-6 (IL-2 2.5 ng/mL) [1] = assay: percent inhibition of viability; higher = more inhibition; conditions: 72 h
NK-YS (IL-2 2.5 ng/mL) [2] = assay: as above; conditions: 72 h
KHYG-1 (IL-2 2.5 ng/mL) [3] = assay: as above; conditions: 72 h
NK-92 (IL-2 2.5 ng/mL) [4] = assay: as above; conditions: 72 h
[5] = system: normal primary NK cells, pool 1 (3 donors) (IL-2 2.5 ng/mL); assay: as above; conditions: 72 h
KAI3 (IL-2 2.5 ng/mL) [6] = assay: as above; conditions: 72 h
DERL-7 (IL-2 2.5 ng/mL) [7] = assay: as above; conditions: 72 h
[8] = system: normal primary NK cells, pool 3 (3 donors) (IL-2 2.5 ng/mL); assay: as above; conditions: 72 h
IMC-1 (IL-2 20 ng/mL) [9] = assay: as above; conditions: 72 h
[10] = system: normal primary NK cells, pool 2 (3 donors) (IL-2 2.5 ng/mL); assay: as above; conditions: 72 h
NKL (IL-2 2.5 ng/mL) [11] = assay: as above; conditions: 72 h
[12] = system: normal primary NK cells, pool 1 (3 donors), resting (IL-2 0 ng/mL); assay: as above; conditions: 72 h
YT (IL-2 2.5 ng/mL) [13] = assay: as above; conditions: 72 h
SNK-6 (IL-2 2.5 ng/mL) [14] = assay: drug sensitivity score (DSS) (DSS units); higher = more sensitive; extreme values may be limits of the assay; conditions: 72 h
NK-YS (IL-2 2.5 ng/mL) [15] = assay: as above; conditions: 72 h
KHYG-1 (IL-2 2.5 ng/mL) [16] = assay: as above; conditions: 72 h
NK-92 (IL-2 2.5 ng/mL) [17] = assay: as above; conditions: 72 h
[18] = system: normal primary NK cells, pool 1 (3 donors) (IL-2 2.5 ng/mL); assay: as above; conditions: 72 h
KAI3 (IL-2 2.5 ng/mL) [19] = assay: as above; conditions: 72 h
DERL-7 (IL-2 2.5 ng/mL) [20] = assay: as above; conditions: 72 h
[21] = system: normal primary NK cells, pool 3 (3 donors) (IL-2 2.5 ng/mL); assay: as above; conditions: 72 h
IMC-1 (IL-2 20 ng/mL) [22] = assay: as above; conditions: 72 h
[23] = system: normal primary NK cells, pool 2 (3 donors) (IL-2 2.5 ng/mL); assay: as above; conditions: 72 h
NKL (IL-2 2.5 ng/mL) [24] = assay: as above; conditions: 72 h
[25] = system: normal primary NK cells, pool 1 (3 donors), resting (IL-2 0 ng/mL); assay: as above; conditions: 72 h
YT (IL-2 2.5 ng/mL) [26] = assay: as above; conditions: 72 h
[27] = system: normal NK cells expanded with K562-aAPC; assay: percent inhibition of viability; higher = more inhibition; conditions: 72 h, IL-2 2.5 ng/mL
Description: (§1)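 Drug sensitivity and resistance testing on K562-aAPC-expanded normal NK cells: 5 concentrations (10-fold steps over a 10,000-fold range), 72 h at 37 °C, viability by CellTiter-Glo normalised to DMSO and benzethonium chloride controls; DSS from the fitted curve.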

[28] = system: normal NK cells expanded with K562-aAPC; assay: drug sensitivity score (DSS) (DSS units); higher = more sensitive; extreme values may be limits of the assay; conditions: 72 h; IL-2 2.5 ng/mL
Description: as §1

CC(C)Oc1ccc(C(=O)N[C@H](CNC(=O)CN(C)C)Cc2ccc(-c3cn4cccc([C@H](C)O)c4n3)cc2)cc1Cl (max concentration tested 10000 nM)
percent inhibition of viability [%]
Conditions	1 nM	10 nM	100 nM	1000 nM	10000 nM
DERL-7 (IL-2 2.5 ng/mL) [7]	3.17	0.65	70.1	99.2	98.2
IMC-1 (IL-2 20 ng/mL) [9]	-5.65	4.24	8.53	95.8	99.2
KAI3 (IL-2 2.5 ng/mL) [6]	-6.47	-5.43	37.5	53.3	103
KHYG-1 (IL-2 2.5 ng/mL) [3]	-0.23	3.89	37.2	105	106
NK-92 (IL-2 2.5 ng/mL) [4]	0.16	3.89	18.2	96.7	106
NK-YS (IL-2 2.5 ng/mL) [2]	-1.16	1.87	67.4	78.2	89.7
NKL (IL-2 2.5 ng/mL) [11]	2.24	7.12	66.4	93.5	91.1
SNK-6 (IL-2 2.5 ng/mL) [1]	1.52	24	74.4	84.6	89.7
YT (IL-2 2.5 ng/mL) [13]	1.62	7.48	76.3	101	104
[5]	-2.11	-10.1	1.46	-2.94	28.1
[8]	-8.24	-2.71	16.4	4.47	33.7
[10]	-5.03	7.38	7.4	6.97	31
[12]	-16.4	-27	-21.3	-33.1	54.9
[27]	5.14	3.61	10.7	62	88.4

Conditions	drug sensitivity score
DERL-7 (IL-2 2.5 ng/mL) [20]	25.9
IMC-1 (IL-2 20 ng/mL) [22]	18.9
KAI3 (IL-2 2.5 ng/mL) [19]	15.1
KHYG-1 (IL-2 2.5 ng/mL) [16]	23.1
NK-92 (IL-2 2.5 ng/mL) [17]	20.2
NK-YS (IL-2 2.5 ng/mL) [15]	24.4
NKL (IL-2 2.5 ng/mL) [24]	25.3
SNK-6 (IL-2 2.5 ng/mL) [14]	27.8
YT (IL-2 2.5 ng/mL) [26]	27.8
[18]	0.98
[21]	2.31
[23]	2.26
[25]	1.92
[28]	13.2

CC[C@]1(O)C[C@@H]2CN(CCc3c([nH]c4ccccc34)[C@@](C(=O)OC)(c3cc4c(cc3OC)N(C)[C@H]3[C@@](O)(C(=O)OC)[C@H](OC(C)=O)[C@]5(CC)C=CCN6CC[C@]43[C@@H]65)C2)C1 [Vinblastine] (max concentration tested 1000 nM)
percent inhibition of viability [%]
Conditions	0.1 nM	1 nM	10 nM	100 nM	1000 nM
DERL-7 (IL-2 2.5 ng/mL) [7]	-13.4	-1.94	99.7	101	99.8
IMC-1 (IL-2 20 ng/mL) [9]	-4.96	-7.43	99.5	101	100
KAI3 (IL-2 2.5 ng/mL) [6]	-16.5	-7.66	45.5	71.1	82.4
KHYG-1 (IL-2 2.5 ng/mL) [3]	-4.6	-0.24	96.7	108	110
NK-92 (IL-2 2.5 ng/mL) [4]	-11.5	-1.18	64.9	100	107
NK-YS (IL-2 2.5 ng/mL) [2]	-5.37	-3.92	70.7	69.4	90.8
NKL (IL-2 2.5 ng/mL) [11]	-3.5	4.6	90.8	97.5	102
SNK-6 (IL-2 2.5 ng/mL) [1]	-13.4	-12.2	83.3	91.1	97.8
YT (IL-2 2.5 ng/mL) [13]	-6.33	-5.56	88.8	105	107
[5]	-10.7	7.03	4.09	14.3	22.7
[8]	-4.89	5.36	12.3	3.78	13.7
[10]	-6.34	7.02	16.6	16.1	23.6
[12]	-21.5	2.75	-2.96	17.9	28.1
[27]	-6.33	-1.7	26.7	60.2	63

Conditions	drug sensitivity score
DERL-7 (IL-2 2.5 ng/mL) [20]	30.2
IMC-1 (IL-2 20 ng/mL) [22]	29.8
KAI3 (IL-2 2.5 ng/mL) [19]	20.6
KHYG-1 (IL-2 2.5 ng/mL) [16]	30
NK-92 (IL-2 2.5 ng/mL) [17]	25.6
NK-YS (IL-2 2.5 ng/mL) [15]	24.6
NKL (IL-2 2.5 ng/mL) [24]	29.5
SNK-6 (IL-2 2.5 ng/mL) [14]	27.2
YT (IL-2 2.5 ng/mL) [26]	28.4
[18]	1.97
[21]	0.31
[23]	4.33
[25]	3.19
[28]	14.7

CCN1CCN(Cc2ccc(-c3cc4c(N[C@H](C)c5ccccc5)ncnc4[nH]3)cc2)CC1 [NVP-AEE788] (max concentration tested 2500 nM)
percent inhibition of viability [%]
Conditions	0.25 nM	2.5 nM	25 nM	250 nM	2500 nM
DERL-7 (IL-2 2.5 ng/mL) [7]	-0.87	0.92	1.23	5.24	19.9
IMC-1 (IL-2 20 ng/mL) [9]	-8.78	-2.35	1.14	-4.8	5.2
KAI3 (IL-2 2.5 ng/mL) [6]	-3.14	-7.58	-0.99	5.51	26.6
KHYG-1 (IL-2 2.5 ng/mL) [3]	-7.12	-8.65	-3.24	-0.41	22.7
NK-92 (IL-2 2.5 ng/mL) [4]	-16	-4.1	-2.66	13.6	51
NK-YS (IL-2 2.5 ng/mL) [2]	-8.61	-8.85	-3.03	-1.23	17.7
NKL (IL-2 2.5 ng/mL) [11]	-2.78	3.21	7.84	20	48.2
SNK-6 (IL-2 2.5 ng/mL) [1]	-12.2	-14.1	-23.9	-6.92	9.17
YT (IL-2 2.5 ng/mL) [13]	-6.59	-5.53	-3.48	7.61	27.4
[5]	4.7	13.8	6.81	9.36	16.1
[8]	-4.61	9.35	9.18	5.89	-1.16
[10]	-10.9	9.29	3.66	5.84	2.8
[12]	-1.29	14.4	9.7	11.1	5.88
[27]	-8.59	-5.81	-0.99	4.64	27.8

Conditions	drug sensitivity score
DERL-7 (IL-2 2.5 ng/mL) [20]	1.24
IMC-1 (IL-2 20 ng/mL) [22]	0
KAI3 (IL-2 2.5 ng/mL) [19]	1.9
KHYG-1 (IL-2 2.5 ng/mL) [16]	0.75
NK-92 (IL-2 2.5 ng/mL) [17]	4.8
NK-YS (IL-2 2.5 ng/mL) [15]	0.35
NKL (IL-2 2.5 ng/mL) [24]	4.63
SNK-6 (IL-2 2.5 ng/mL) [14]	0
YT (IL-2 2.5 ng/mL) [26]	2.2
[18]	0
[21]	0
[23]	0
[25]	0.04
[28]	1.88

O=S(=O)(c1cccc2c(O)nccc12)N1CCCNCC1 [Hydroxyfasudil] (max concentration tested 37500 nM)
percent inhibition of viability [%]
Conditions	3.75 nM	37.5 nM	375 nM	3750 nM	37500 nM
DERL-7 (IL-2 2.5 ng/mL) [7]	2.41	-1.56	-3.11	9.25	29.7
IMC-1 (IL-2 20 ng/mL) [9]	-4.78	-3.11	0.96	2.27	5.47
KAI3 (IL-2 2.5 ng/mL) [6]	-11.8	-3.4	2.23	-8.56	32.2
KHYG-1 (IL-2 2.5 ng/mL) [3]	-8.68	0.53	6.74	10.9	23
NK-92 (IL-2 2.5 ng/mL) [4]	2.93	2.6	5.94	-2.67	19.6
NK-YS (IL-2 2.5 ng/mL) [2]	-6.95	-1.93	3.17	-3.19	18.9
NKL (IL-2 2.5 ng/mL) [11]	3.67	6.42	10.9	12.7	31.9
SNK-6 (IL-2 2.5 ng/mL) [1]	2.11	-9.82	10.9	4.05	52
YT (IL-2 2.5 ng/mL) [13]	-4.2	0.69	4.57	-4.39	2.68
[5]	-10.4	-4.9	-10.6	-4.54	17.3
[8]	-6.09	-6.32	12.8	7.6	21.9
[10]	-5.27	-3.13	-1.92	7.54	31.2
[12]	-1.24	11.4	11.7	-5.48	13.2
[27]	-7.06	-1.95	-4.05	11.7	18.2

Conditions	drug sensitivity score
DERL-7 (IL-2 2.5 ng/mL) [20]	2.59
IMC-1 (IL-2 20 ng/mL) [22]	0
KAI3 (IL-2 2.5 ng/mL) [19]	1.06
KHYG-1 (IL-2 2.5 ng/mL) [16]	1.61
NK-92 (IL-2 2.5 ng/mL) [17]	0.43
NK-YS (IL-2 2.5 ng/mL) [15]	0.37
NKL (IL-2 2.5 ng/mL) [24]	3.11
SNK-6 (IL-2 2.5 ng/mL) [14]	3.39
YT (IL-2 2.5 ng/mL) [26]	0
[18]	0.25
[21]	1.36
[23]	2.54
[25]	0.05
[28]	1.51
